According to ChEMBL document CHEMBL1145463, “Clonal spread of mef-positive macrolide-resistant Streptococcus pneumoniae isolates causing invasive disease in adults in Germany” (2007):
Values after ≈ are worked out from the molar mass of the structure shown.

Test system: Streptococcus pneumoniae
Experiment: Antibacterial activity against telithromycin-susceptible Streptococcus pneumoniae
Type: functional

MIC90: 0.12 µg/mL (≈ 0.148 µM)
Compound: CC[C@H]1OC(=O)[C@H](C)C(=O)[C@H](C)[C@@H](O[C@@H]2O[C@H](C)C[C@H](N(C)C)[C@H]2O)[C@](C)(OC)C[C@@H](C)C(=O)[C@H](C)[C@H]2N(CCCCn3cnc(-c4cccnc4)c3)C(=O)O[C@]12C [TELITHROMYCIN]
